Test results: patent US5147856A, “Method for inhibiting blood vessel blockage using octapeptide compositions” (Societe de Conseils de Recherches et d'Applications …, priority 1988, dated 1992)
Values joined by “and” are separate entries in the source; they are usually repeats but may differ in a detail not shown here. Identical values can stand only once. Square brackets hold non-standard residues; d marks the D form. Mpa = O=C(O)CCS

Experiments:
[1] = system: myointimal proliferation of the carotid artery; test: Air-drying injury of the rat carotid artery, intimal/media ratio (Example 2); type: in vivo; conditions: for Intimal/Media Ratio: mean ± SE; for Inhibition of myointimal (smooth muscle cell) proliferation of the carotid artery, in words: administered from two days prior to injury, at the doses used (20 and 50 μg/kg/day)
Protocol: Male Sprague-Dawley rats, weighing […], obtained from Charles River were kept under controlled lighting conditions and fed rat chow and water ad libitum. Under sodium pentobarbital anesthesia the intima of the right carotid artery was subjected to an air-drying injury described by Fishman et al, Lab Invest., 32, 339 (1975). The procedure causes intimal hyperplasia that largely consists of proliferating intimal smooth muscle cells. In this model approximately 4 cm of the vessel is isolated and drained of blood. Air (20 ml/min) is blown through a 30 gauge needle for 5 min whereafter blood flow is reestablished. The contralateral carotid artery was also exposed but not air-dried. The rats were sacrificed 15 days later.
The experiment consisted of a control group and ten treatment groups. The somatostatin analogs used were hepta- or octapeptides, namely BIM 23014 (Angiopeptin), BIM 23012, BIM 23027, BIM 23030 and BIM 23034. […] The animals were pretreated two days prior to the procedure and for a further five days following the endothelial injury. Two additional groups of animals were added in order to study whether Angiopeptin (20 μg/kg/day and 50 μg/kg/day) administered 30 min prior to the endothelial injury and for a further five days would protect against the myointimal proliferation.
The animals were sacrificed on day 15 following the injury by exsanguination. The vascular system was flushed with normal saline and perfusion-fixed at 80 mmHg with 10% formalin. The carotid arteries were subsequently fixed, embedded and sectioned for light microscopy and morphometric analysis. The maximal intimal/media ratio is the distance from the lumen to the internal elastic lamina and the distance from the internal elastic lamina to the external elastic lamina. The distances were determined in each vessel using a digitizing system attached to a light microscope. The determinations were performed on three different cross sections of the vessel and each section was measured three times. The mean was calculated for each vessel. Differences between the groups were evaluated using Student's unpaired t-test.

[2] = system: intimal hyperplasia of aorta and iliac arteries; test: Myointimal hyperplasia in rabbits after balloon angioplasty (Example 3); type: in vivo, rabbit; conditions: for % Intimal hyperplasia: 20 μg/kg twice daily s.c., individual samples; for Percentage of inhibition of myointimal hyperplasia: 20 μg/kg/d
Protocol: Female and Male, white New Zealand rabbits (2.8-3.0 kg) were divided into two groups (A and B). Group A (vehicle control) received subcutaneous injections of physiological saline (0.2 ml) twice daily. […] The animals were treated the day before angioplasty, and until sacrifice about 3 weeks later. The angioplasty was done under general anesthesia with Ketamine and Xylazine. Each animal's left iliac artery and aorta were denuded with an angioplasty catheter (Fogarty). The angioplasty catheter was inserted into the left femoral artery and passed through the vessel to the thoracic aorta. The catheter was then reciprocated three times. The animals were all sacrificed from days 22-24 after angioplasty. The aorta and iliac arteries were fixed in situ via perfusion with formaldehyde under constant perfusion pressure.
Intimal hyperplasia was determined on elastin-stained (Van Giesen) horizontally-cut sections. The sections were obtained from (i) the aorta at the level of the renal artery, (ii) the common iliac artery at the level of bifurcation, and (iii) the external iliac artery just above the inguinal ligament. The area of intimal hyperplasia and total vessel area were determined by morphometry. The percentage of intimal hyperplasia was expressed as follows: [formula]
Single determinations were made on three segments of each aorta and the two iliac arteries of each animal. The percentage of intimal hyperplasia was determined as the mean of the two closest measurements of each vessel.

[3] = system: hyperplasia of the right carotid artery; test: Air-drying injury of the rat right carotid artery, ratio of width of intimal and medial layers (Example 4); type: in vivo; conditions: 50 μg/kg/day s.c. twice a day
Protocol: Angiopeptin was administered s.c. twice a day 50 μg/kg/day to male Sprague-Dawley (Charles River) rats, 250-350 g each. After two days of pre-treatment, a lesion was made on the third day after the morning dose by air-drying the right carotid artery while the rats were under anesthesia (Ketamine-Innovar, i.m.). Treatment was continued on day: 4, 5, 6, and 7. The rats were sacrificed on day 14 following the injury. After in-situ fixation at constant pressure, with 10% formalin, the tissues were prepared to form morphometrics.
Hyperplasia was measured as the ratio of width of intimal and medial layers. For each rat, 3 different histological sections were measured and the morphometrics was done 3 times on each section.

[4] = system: smooth muscle cell proliferation in the aorta and femoral arteries; test: Primate balloon catheter injury of aorta and femoral arteries (Example 5); type: in vivo, cynomologous macaque; conditions: aorta and left and right femoral arteries; i.m. slow release system, 50 μg/kg/day; one treated primate vs one control; five weeks
Protocol: In order to obtain a primate coronary angioplasty model which would be suited for evaluation of Angiopeptin, a feasibility study was performed on primates which were made available from the colony at Bowman-Gray Medical School, Winston-Salem, North Carolina. These animals were culled from the colony due to failure of the primates to satisfactorily elevate blood lipids when administered a high cholesterol diet. Young male cynomologous macaques weighing approximately 3.5 kg were used after an equilibration period of more than a week in a primate facility.
The animals were sedated with Ketamine and maintained with 1% halothane in oxygen. The aorta and femoral arteries were injured by a balloon catheter (USCI, Band). After five weeks the primates were anesthetized and sacrificed. The aorta and femoral arteries were removed and fixed in formaldehyde for morphometric analysis. […]
The maximal intimal/media ratio (distance from lumen to internal elastic lamina/distance from internal elastic lamina to external elastic lamina) was determined in each vessel using a digitizing system attached to a light microscope. The determinations were done on three different cross sections of the vessel and each section was measured three times and each three measurements were averaged.

[5] = system: myointimal cell proliferation in the aortas of rabbits; test: Rabbit aorta 72 hours after balloon angioplasty: wet weight, protein, DNA/protein, 3-H thymidine incorporation (Example 6); type: in vivo; conditions: for DNA/Protein ratio, in words: FIG. 3; for Rates of cell proliferation by 3-H thymidine incorporation, in words: FIG. 4
Protocol: New Zealand White Rabbits were anesthetised with Rompun (Xylazine) and Ketalar (Ketamine) and a cannula (3F Fogarty) was inserted from the femoral artery. The balloon was inflated at a constant pressure and the aorta was de-endothelialised by angioplasty. The process was repeated three times and the wound site was closed. The animals were sacrificed 72 hours after balloon angioplasty and after removing the adventitia the aorta was cut into fine rings. These rings were incubated in the presence of 3-H thymidine and the radioactivity was determined after processing the tissue. Simultaneous measurements of DNA and protein contents were also made in these tissues.
Eight injections of Angiopeptin were made: on the morning and evening of the day prior to ballooning; two on the day of the procedure; and two on each of the following two days. The total daily dose was 2, 20, or 200 μg/Kg body weight.

[6] = system: Smooth Muscle Pig Left Coronary Artery Explants; test: H3-thymidine incorporation in pig left coronary artery explants (Example 7); type: cell-based; conditions: 24 hr, individual segments
Protocol: Domestic pig hearts were obtained from a slaughter house immediately after the animals were sacrificed. The hearts were harvested and placed in ice-cold Kreb's Ringer buffer and transported to the laboratory. The left coronary artery (LAD) was dissected in aseptic conditions and divided into pieces of 5 mm. The segments were denuded from the endothelium by gently introducing a metallic rod in the lumen. The tissues were placed in sterile multiwell culture dishes in 1 ml of culture media (DMEM with antibiotics) and without fetal calf serum. H^3 -thymidine (2.5 uCi/ml) and increasing concentrations of angiopeptin (10-1000 ng/ml) were added to the medium. Segments which were incubated with 3 different concentrations of forskolin were used as a positive control in each experiment. The incubation period was 24 hr at 37° C. and 5% CO2. The tissues were washed with phosphate saline buffer and placed in a solution of cold thymidine for one hour and then frozen in liquid nitrogen, ground and lysed with a hypotonic solution. The lysed tissues were further incubated with proteinase K overnight at 50° C. The radioactivity, content of protein and DNA were measured.

growth hormone release = conditions: cited from earlier work; for Inhibition of growth hormone release, in words: in vivo; for Potency for growth hormone suppression in vivo, relative to somatostatin 14: rats, compared to somatostatin 14 (=1)
[7] = 20 μg/kg/day s.c. in two divided doses, from two days prior to injury and five days postinjury, sacrifice day 15
[8] = 50 μg/kg/day s.c. in two divided doses, from two days prior to injury and five days postinjury, sacrifice day 15
[9] = common iliac artery, female rabbits
[10] = common iliac artery, male rabbits
[11] = external iliac artery, female rabbits

CC(C)[C@@H]1NC(=O)[C@H](CCCCN)NC(=O)[C@@H](Cc2c[nH]c3ccccc23)NC(=O)[C@H](Cc2ccc(O)cc2)NC(=O)[C@@H](NC(=O)[C@H](N)Cc2ccc3ccccc3c2)CSSC[C@@H](C(=O)N[C@H](C(N)=O)[C@@H](C)O)NC1=O [Angiopeptin, D-Nal-Cys-Tyr-D-Trp-Lys-Val-Cys-Thr-NH2]
Intimal/Media Ratio [1, 7]: 1.7 ± 0.2
Intimal/Media Ratio ([1]; 20 μg/kg/day, pretreatment 30 min prior to injury and for a further five days): 1.6 ± 0.9
Inhibition of myointimal proliferation, in words ([1]; 50 μg/kg/day from 30 min prior to injury and for a further five days): significantly (p<0.01) inhibited
Intimal/Media Ratio [1, 8]: 1.1 ± 0.2
Intimal/Media Ratio ([1]; 50 μg/kg/day, pretreatment 30 min prior to injury and for a further five days): 1.0 ± 0.3
Inhibition of myointimal (smooth muscle cell) proliferation of the carotid artery, in words [1]: inhibited significantly
Inhibition of myointimal proliferation, in words ([1]; high dose 50 μg/kg/day, from two days prior to injury): effective
Inhibition of myointimal proliferation, in words ([1]; low dose 20 μg/kg/day, from two days prior to injury): effective
% Intimal hyperplasia ([2]; aorta, female rabbits): 13.0% and 6.4%
Percentage of inhibition of myointimal hyperplasia ([2]; aorta, female rabbits): ~43%
% Intimal hyperplasia ([2]; aorta, male rabbits): 17.0%
Percentage of inhibition of myointimal hyperplasia ([2]; aorta, male rabbits): ~32%
% Intimal hyperplasia [2, 9]: 9.3% and 9.5% and 7.7% and 6.5%
Percentage of inhibition of myointimal hyperplasia [2, 9]: ~33%
% Intimal hyperplasia [2, 10]: 16.0% and 6.4% and 14.0%
Percentage of inhibition of myointimal hyperplasia [2, 10]: ~39%
% Intimal hyperplasia [2, 11]: 6.6%
Percentage of inhibition of myointimal hyperplasia [2, 11]: about 41%
Percentage of inhibition of myointimal hyperplasia ([2]; external iliac artery, male rabbits): ~20%
Hyperplasia: ratio of width of intimal and medial layers ([3]; two days pre-treatment and days 4-7, sacrifice day 14, individual rats): 0.46 ± 0.08 and 0.28 ± 0.03 and 0.52 ± 0.05 and 0.69 ± 0.02
Hyperplasia: ratio of width of intimal and medial layers, mean ([3]; group mean, N 4): 0.48
Inhibition of smooth muscle cell proliferation, in words [4]: nearly complete inhibition
Total protein content of injured aortas, in words ([5]; 2 μg/kg, FIG. 2): lowered
DNA/Protein ratio, in words ([5]; 20 μg/kg body weight): significantly lowered
Rates of cell proliferation by 3-H thymidine incorporation, in words ([5]; 20 μg/kg body wt.): significantly lower
DNA/Protein ratio, in words ([5]; 200 μg/kg body wt.): reflected the inhibitory influence
Rates of cell proliferation by 3-H thymidine incorporation, in words ([5]; 200 μg/kg): still inhibited
Wet weight of aortas, in words ([5]; 2, 20, 200 μg/kg body wt. total daily dose, FIG. 1): does not seem to influence
Levels of total proteins, in words ([5]; higher doses (20 and 200 μg/kg), FIG. 2): did not affect
Rates of cell proliferation by 3-H thymidine incorporation, in words ([5]; overall): significantly inhibited
CPM (H3-thymidine radioactivity) ([6]; Angiopeptin 10 ng/ml): 35113.84 CPM and 46392.32 CPM and 27312.80 CPM and 55980.00 CPM
CPM (H3-thymidine radioactivity) ([6]; Angiopeptin 20 ng/ml): 26279.81 CPM and 39027.27 CPM and 39706.01 CPM and 21562.08 CPM
CPM (H3-thymidine radioactivity) ([6]; Angiopeptin 50 ng/ml): 18942.16 CPM and 24269.18 CPM and 40768.09 CPM and 18983.78 CPM
CPM (H3-thymidine radioactivity) ([6]; Angiopeptin 100 ng/ml): 20794.85 CPM and 32402.31 CPM and 22033.48 CPM and 26227.64 CPM
CPM (H3-thymidine radioactivity) ([6]; Angiopeptin 1000 ng/ml): 18325.51 CPM and 27260.98 CPM and 30226.99 CPM and 32344.58 CPM
Inhibition of growth hormone release, in words (growth hormone release): less active
Potency for growth hormone suppression in vivo, relative to somatostatin 14 (growth hormone release): 5

D-Phe--Cys--Phe-D-Trp--Lys--Thr--Cys--Thr--NH2 [BIM 23012]
Intimal/Media Ratio [1, 7]: 2.3 ± 0.4
Intimal/Media Ratio [1, 8]: 1.6 ± 0.4
Inhibition of myointimal (smooth muscle cell) proliferation of the carotid artery, in words [1]: did not inhibit
Potency for growth hormone suppression in vivo, relative to somatostatin 14 (growth hormone release): 62

D-Trp--Lys--Abu--Phe--Me--Ala--Tyr [BIM 23027]
Intimal/Media Ratio [1, 7]: 1.6 ± 0.2
Intimal/Media Ratio [1, 8]: 1.5 ± 0.2
Inhibition of myointimal (smooth muscle cell) proliferation of the carotid artery, in words [1]: did not inhibit
Inhibition of growth hormone release, in words (growth hormone release): most potent
Potency for growth hormone suppression in vivo, relative to somatostatin 14 (growth hormone release): 100

[Mpa]Y[dW]KVCF-NH2 (cysteine pairing not given here) [BIM 23030]
Intimal/Media Ratio [1, 7]: 1.6 ± 0.2
Intimal/Media Ratio [1, 8]: 2.2 ± 0.5
Inhibition of myointimal (smooth muscle cell) proliferation of the carotid artery, in words [1]: did not inhibit
Potency for growth hormone suppression in vivo, relative to somatostatin 14 (growth hormone release): 0.5
